This assay deals with T1, chymotrypsin-like activity of the proteasome (Mus musculus, UniProt O55234).
T1 construct: measurement of proteasome activity in whole blood (primarily erythrocytes); from tissue; host or cells: whole blood (primarily erythrocytes), adrenal, liver and heart of BALB/C mice
T1 sequence (O55234 60-264): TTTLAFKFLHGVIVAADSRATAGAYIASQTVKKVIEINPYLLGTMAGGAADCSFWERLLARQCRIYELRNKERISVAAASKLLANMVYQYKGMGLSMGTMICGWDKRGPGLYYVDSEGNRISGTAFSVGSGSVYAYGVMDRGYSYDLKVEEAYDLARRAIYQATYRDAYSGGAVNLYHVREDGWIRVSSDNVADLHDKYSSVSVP
As to the kind of experiment: Pharmacodynamic response: proteasome activity in whole blood, adrenal, liver and heart (LLVY-AMC substrate). It counts as in vivo, BALB/C mice. The note with it: mice, single i.v. dose, whole blood (primarily erythrocytes), up to 24 hours. How it is done: The pharmacodynamic response of carfilzomib formulated in SBE-B-CD (CFZ SBE-B-CD) (using a non-liposomal, injectable composition of carfilzomib formulated in 10% sulfobutylether beta cyclodextrin (SBE-B-CD), 10 mM Citrate, pH 3.5 (see, e.g., U.S. Patent Publication Nos. 2011/0236428)), empty liposomes (Composition D), liposomes comprising CFZ (L-CFZ, Composition C), and pegylated liposomes comprising (pL-CFZ, Composition E) was evaluated in BALB/C mice following a single intravenous bolus administration.
The mice (three mice per time point) were administered a dose of 10 mg/kg in a dose volume of 5 mL/kg. […] The pharmacodynamic response was determined by measurement of proteasome activity in whole blood (primarily erythrocytes) (see FIG. 2A), adrenal (see FIG. 2B), liver (see FIG. 2C), and heart (see FIG. 2D), using a fluorogenic substrate (LLVY-AMC [Leu-Leu-Val-Tyr-AMC {AMC=7-amido 4-methylcoumarin}]; as described by Lightcap E S, McCormack T A, Pien C S, et al., Clin. Chem. 46:673-683 (2000)) to quantitate the chymotrypsin-like activity of the proteasome. […] Three tissue samples were evaluated per time point for each tissue from each mouse.
The pharmacodynamic response of liposomal compositions comprising liposomes comprising an aqueous core loaded with CFZ complexed with SBE-B-CD was evaluated in BALB/C mice following a single intravenous bolus administration. […]

For the molecule `CC(C)C[C@H](NC(=O)[C@H](CCc1ccccc1)NC(=O)CN1CCOCC1)C(=O)N[C@@H](Cc1ccccc1)C(=O)N[C@@H](CC(C)C)C(=O)[C@@]1(C)CO1` [carfilzomib], the “recovery of proteasome activity in blood” value is recorded as “no recovery”.

Values taken from US10022326B2, “Liposomal compositions of epoxyketone-based proteasome inhibitors” (ONYX THERAPEUTICS, INC., priority 2012, dated 2018).
